From patent US6190849A, “Photographic element containing ballasted tetrazole derivative and inhibitor releasing coupler” (priority 1999, dated 2001)

Tests used:
[1] = Interimage in bilayer format: IDIR-2 in blue layer, IEM in green layer; settings: for Cg /Cb+g (interimage): IEM or CIEM in green layer at 7.2×10^-3 mmol/m^2, higher ratio = more interimage, no-IEM check; for Relative Speed (green layer): IEM or CIEM in green layer, speed point +0.15 density above Dmin, normalized to check
Procedure: (§1) Bilayer photographic elements were prepared by coating the following layers on a cellulose triacetate film support (coverages are in g/m^2). Unless otherwise noted, all comparative and inventive compounds were dispersed in twice their own weight of N,N-dibutyllauramide: […] Layer 3 (Interlayer): gelatin at 0.64, ILS-1 at 0.11 and FD-1 at 0.11. […] Layer 5 (Overcoat): gelatin at 2.79 and 0.02 bis-vinylsulfonemethylether. […] Contrast of the elements was determined using the maximum slope between any two density points. In this test, the ratio of the contrast of the green only exposure to the contrast of the green of a blue and green exposure (Cg /Cb+g) is a measure of the interimage. A higher ratio means more inhibition originating from the blue and affecting the green record. Relative speed of the green layer was determined by measuring the speed point +0.15 density units above Dmin and normalizing to the check position.

[2] = Interimage in bilayer format: IDIR-6 in blue layer, IEM in green layer; settings: for Cg /Cb+g (interimage): IEM or CIEM in green layer at 7.2×10^-3 mmol/m^2; for Relative Speed (green layer): IEM or CIEM in green layer, normalized to check
Procedure: as §1

[3] = Contrast (gamma) reduction by DI(A)R in single layer film element, C-41 process; settings: DIR at 0.055 mmol/m^2, relative to non-inhibitor containing check; KODAK FLEXICOLOR (C-41)
Text: The mild inhibitor fragments that are used in this invention are defined as those that cause less than a 45% gamma reduction, or more preferably less than a 40% gamma reduction, relative to a non-inhibitor containing check when coated as the following single layer film element on a cellulose triacetate film support (coverages are in g/m^2): […]
Overcoat Gelatin at 2.79 and 0.02 bis-vinylsulfonemethylether
Imaging Layer Gelatin at 2.79
Magenta Image Coupler M-1 (dispersed at 80% by
weight in tricresyl phosphate and 20% by weight
N,N-dibutyl-2-butoxy-5-t-octylaniline) at 0.692
DIR being tested at 0.055 mmol/m^2 (dispersed in twice
its weight in N,N-dibutyllauramide)
Green sensitized AgBrI at 1.08
Samples of each element were given a stepped exposure and processed in the KODAK FLEXICOLOR (C-41) process as described in British Journal of Photography Annual, 1988, pp 196-198. Contrast of the elements was determined using the maximum slope between any two density points.

[4] = Interimage in multilayer format (density change of receiver record); settings: for R→G density difference (interimage) / B→G density difference (interimage): CDIR-1 in red
Text: Multilayer Film Example ML-1:
Layer 1 (Antihalation layer): black collodial silver sol at 0.135; ILS-1 at 0.162,
Layer 2 (Slow cyan layer): a blend of two red sensitized (both with a mixture of RSD-1 and RSD-2) tabular silver iodobromide emulsions: (i) 0.66×0.12, 4.1 mole % I at 0.302 (ii) 0.55×0.08, 1.5 mole % I at 0.464; cyan dye-forming coupler C-1 at 0.535; DIR coupler CDIR-1 at 0.027; bleach accelerator releasing coupler B-1 at 0.057; masking coupler MC-1 at 0.032; and gelatin at 1.68.
Layer 3 (Mid cyan layer): a blend of two red sensitized (same as above) tabular silver iodobromide emulsions: (i) […], 4.1 mole % I at 0.194 (ii) 1.07×0.11, 4.1 mole % I at 0.238; cyan coupler C-1 at 0.171; CDIR-1 at 0.019; MC-1 at 0.032; B-1 at 0.008; and gelatin at 1.08.
Layer 4 (Fast cyan layer): a red sensitized (same as above) tabular silver iodobromide emulsion (1.33×0.12, 4.1 mole % I) at 0.594; C-1 at 0.184; CDIR-1 at 0.027; MC-1 at 0.022; and gelatin at 0.918.
Layer 5 (Interlayer): ILS-1 at 0.086 and gelatin at 0.540.
Layer 6 (Slow magenta layer): a blend of two green sensitized (both with a mixture of GSD-1 and GSD-2) silver iodobromide emulsions: (i) 0.81×0.12, 2.6 mole % iodide at 0.346 and (ii) 0.55×0.08, 1.5 mole % iodide at 0.130; magenta dye forming coupler M-1 at 0.270; MC-2 at 0.086; IDIR-5 at 0.011; and gelatin at 1.08.
Layer 7 (Mid magenta layer): a blend of two green sensitized (same as above) tabular silver iodobromide emulsions (i) 1.22×0.11, 4.1 mole % I at 0.248 and (ii) 1.07×0.11, 4.1 mole % I at 0.248; M-1 at 0.124; MC-2 at 0.119; IDIR-5 at 0.043; OxDS-2 at 0.016; and gelatin at 1.22.
Layer 8 (Fast magenta layer): a green sensitized tabular silver iodobromide (1.33×0.12, 4.1 mole % I) emulsion at 0.486; M-1 at 0.076; MC-2 at 0.054; B-1 at 0.003; IDIR-5 at 0.015; OxDS-2 at 0.009; and gelatin at 1.02.
Layer 9 (Yellow filter layer): yellow filter dye FD-1 at 0.054; ILS-1 at 0.086; and gelatin at 0.648.
Layer 10 (Slow yellow layer): a blend of three blue sensitized (all with a mixture of BSD-1 and BSD-2) tabular silver iodobromide emulsions (i) 0.55×0.08, 1.5 mole % I at 0.270 (ii) […], 1.5 mole % I at 0.248 and (iii) 1.25×0.14, 4.1 mole % I at 0.400; yellow dye forming coupler Y-2 at 1.08; IDIR-6 at 0.076; CDIR-1 at 0.032; B-1 at 0.022; and gelatin at 1.879.
Layer 11 (Fast yellow layer): a blend of two blue sensitized (both with a mixture of BSD-1 and BSD-2) tabular silver iodobromide emulsions (i) 1.25×0.14, 4.1 mole % I at 0.108 (ii) 2.67×0.13, 4.1 mole % I at 0.378; Y-2 at 0.238; IDIR-6 at 0.076; B-1 at 0.005; and gelatin at 0.810.
Layer 12 (Protective overcoat and UV filter layer): silver bromide Lippman emulsion at 0.216; UV-1 at a total of 0.108; gelatin at 1.242 and bis(vinylsulfonyl)methane hardener at 1.75% of total gelatin weight.
Surfactants, coating aids, emulsion addenda, sequestrants, thickeners, lubricants, matte and tinting dyes were added to the appropriate layers as is common in the art. […]
These multilayer coatings were given a stepped exposure in one color record but only flashed (non-imagewise exposure) in the other two records and processed as described for the bilayer experiments. To monitor interimage, a step nearest to density of 1.5 in the stepped color record (the causer) was chosen, and the difference in density of the other color records (the receivers) at that step and at the no exposure step of the causer was determined. […]

[5] = Interimage in bilayer format: IDIR-1 in green layer, IEM in blue layer
Procedure: Samples of each element were given a stepped exposure of either green light only or blue and green light combined and processed in the KODAK FLEXICOLOR™ (C4 1) process as described in British Journal of Photography Annual, 1988, pp196-198. Contrast of the elements was determined using the maximum slope between any two density points. […] A higher ratio means more inhibition originating from the blue and affecting the green record. Relative speed of the green layer was determined by measuring the speed point +0.15 density units above Dmin and normalizing to the check position.
Additional bilayer elements were prepared in a manner similar to above by coating the following layers:
Layer 1 (Antihalation Layer): black colloidial elemental silver at 0.34 and gelatin at 2.41.
Layer 2 (Causer Layer): gelatin at 2.79, IDIR-1 at 0.054, coupler M-1 (dispersed as described previously) added at 0.045, and 0.81 green sensitized AgIBr tabular emulsion.
Layer 3 (Interlayer): gelatin at 0.64, ILS-1 at 0.11 and FD-1 at 0.11.
Layer 4 (Receiver Layer): gelatin at 2.79, coupler Y-2 at 1.08, IDIR-6 at 0.076, 0.79 blue sensitized AgIBr tabular emulsion and (when present) IEM-4 (dispersed as above) at 0.0023.
Layer 5 (Overcoat): gelatin at 2.79 and 0.02 bis-vinylsulfonemethylether.

[6] = ML-4: IEM-4 in green, IDIR-2 in blue

Row | SMILES | Cg /Cb+g (interimage) [1] | Relative Speed (green layer) [1] | Cg /Cb+g (interimage) [2] | Relative Speed (green layer) [2] | % Contrast Reduction [3] [%] | interimage, in words ([4]; Table IV, IEM in green layer) | Cb /Cb+g (interimage) ([5]; IEM-4 in blue layer at 0.0023 g/m^2) | Relative Speed ([5]; IEM-4 in blue layer at 0.0023 g/m^2, normalized to check) | R→G density difference (interimage) ([4]; ML-3: IEM-4 in green, IDIR-6 in blue) | B→G density difference (interimage) ([4]; ML-3: IEM-4 in green, IDIR-6 in blue, more negative = increased interimage) | B→G density difference (interimage) [4, 6] | R→G density difference (interimage) [4, 6]
1 | CC(=O)Nc1cccc(-n2nn[nH]c2=S)c1 [CIEM-1] | 1.19 | 1.01 | 1.16 | 1.01 | – | – | – | – | – | – | – | –
2 | CCCCCCCCCCCCCCOc1ccccc1NC(=O)c1cc(Oc2ccc(CSc3nnnn3Cc3ccc(OC)cc3)cc2[N+](=O)[O-])c2ccccc2c1O [CDIR-1] | – | – | – | – | -55.4 | Interimage is not increased | – | – | – | – | – | –
3 | CCCCCCCOC(=O)C(CCSC)n1nn[nH]c1=S (racemic) [IEM-4] | 1.62 | 0.96 | 1.35 | 0.94 | – | – | 1.57 | 0.98 | -0.206 | -0.129 | -0.212 | -0.238
